Data reported in patent publication US20250221953A1 (The University of Chicago, priority 2022, published 2025).

Key:
colon tumors = experiment: Colon tumorigenesis in Apc+/fl; Cdx-2P-Cre-NLS mice; format: in vivo, mouse; settings: gavage TVA 35 mg/kg bw daily×5 days for 4 wks; lipid rich diet
human primary T cell = experiment: IL-2 production of human primary T cells; format: cell-based; settings: 20 μM TVA (FIG. 17B)
From the text: (§1) Two preliminary screens were designed and performed.

influenza virus = experiment: Influenza virus challenge of mice; format: in vivo, mouse
From the text: Control mice were born by mothers on normal diet, followed by normal milk feeding and normal diet since weaning.

B16F10 tumor = experiment: Mouse tumor model, B16F10; format: in vivo; settings: B16F10 tumor-bearing C57BL/6 mice on enriched diet vs control diet
Experimental: For C57BL/6 mice and TCR-a KO mice tumor model, mice were anesthetized with isoflurane, shaved the injection site, and then injected subcutaneously in the abdominal flank with 1×10^5 B16F10, MC38, or LLC1 cells, or in the mammary gland with 2×10^5 E0771 cells. C57BL/6 nude mice were injected subcutaneously in the abdominal flank with 1×10^5B16F10 cells. […] Tumors were measured the tumors using a caliper every 2-3 days. Tumor volumes were calculated using the following formula: length×width×[(length×width)^0.5]×π/6. Mice were euthanized at humane endpoints or day 11-15 for tissue collection.
The mice were treated once a day for 5 consecutive days per week for 2 weeks. Tumors were measured the tumors using a caliper every 2-3 days. Tumor volumes were calculated using the following formula: length×width×[(length×width)^0.5]×π/6. Mice were euthanized at humane endpoints.
For anti-PD-1 treatment mouse model, 6-8 weeks old C57BL/6 mice were anesthetized with isoflurane, shaved the injection site, and then injected subcutaneously in the abdominal flank with 1×10^5 B16F10 for tumor development. […] In day 3, 6, 9, 12, and 15, 250 μg anti-PD-1 (BioXCell) or IgG control (BioXCell) was injected intraperitoneally per mouse. Tumors were measured the tumors using a caliper every 2-3 days. Tumor volumes were calculated using the following formula: length×width×[(length×width)^0.5]×π/6. […]

Mouse T cell = experiment: Second screen: IL-2 level of murine primary T cells; format: cell-based
From the text: as §1

mouse CD8^+ T cells = experiment: RNA-sequencing of CD8+ T cells with or without TVA (also siNTC / siCreb1); format: cell-based; settings: 20 μM TVA, 24 h
Mouse CD8^+ T cell = experiment: Second screen: IL-2 level of mouse CD8+ T cells

CCCCCC/C=C/CCCCCCCCCC(=O)O [TVA, trans-vaccenic acid]
tumorigenesis and tumor progression (tumor multiplicity, pathology) (colon tumors): Suppresses Tumorigenesis and Tumor Progression | IL-2 production from human primary T cells (human primary T cell): enhances IL-2 production | survival after influenza virus challenge (influenza virus; TVA exposure during fetal and infant stages, TVA diet since weaning): significantly increased survival | immune responses to viral exposure, male vs female (influenza virus; TVA mice): better immune responses to viral exposure compared to female TVA mice | body weights of mice (B16F10 tumor): did not alter body weights | Mouse T cell IL-2 level changes after treatment (Mouse T cell): 183.5% | IL-2 production from mouse primary T cells (Mouse T cell; 20 μM TVA (FIG. 17A)): enhances IL-2 production | gene expression (RNA-seq, GSEA) (mouse CD8^+ T cells): enhances expression of the genes enriched in effector CD8^+ T cell function, E2F and MYC pathways | Mouse CD8^+ T cell IL-2 level changes after treatment (Mouse CD8^+ T cell): 193.6%
